In US20040147532A1, “Liquid conjugates of solid pharmaceuticals” (Pfizer Inc, priority 2002, published 2004):
Values after ≈ are worked out from the molar mass of the structure shown. Structures can show the parent of a compound that is named as a salt.

Assay: Solubility of ziprasidone from conjugates in phosphate buffered saline (HPLC)
Assay type: physicochemical
Settings: PBS, continuous agitation; for Solubility of ziprasidone, Sample Conc., 20 min: time point 20 min; for Solubility of ziprasidone, Sample Conc., 7 days: time point 7 days
Protocol: For the solubility determination, all conjugate samples were placed in Eppendorf tubes with 1-ml aliquot of phosphate buffered saline (PBS), pH adjusted to 7.4. At selected time points (20 minutes, 1 hour, 6 hours, 24 hours, and 7 days), 200 µl of PBS exposed to each sample was withdrawn and replaced with fresh medium. The samples were continuously agitated for the duration of the study. To prepare HPLC samples, the 200-μl samples were filtered through 0.22-μm syringe, filter membrane, diluted as needed, and injected at appropriately adjusted volume to determine ziprasidone concentration in solution.

In the case of `O=C1Cc2cc(CCN3CCN(c4nsc5ccccc45)CC3)c(Cl)cc2N1` [Ziprasidone Mesylate], the “Solubility of ziprasidone, Sample Conc., 20 min” value (pH 7.4) is reported as 1.46 µg/mL and the “Solubility of ziprasidone, Sample Conc., 7 days” value (pH 7.4) is reported as 1.31 µg/mL.

With `O=C1Cc2cc(CCN3CCN(c4nsc5ccccc45)CC3)c(Cl)cc2N1` [Ziprasidone Free Base, 5-[2-[4-(1,2-benzisothiazol-3-yl)-1-piperazinyl]ethyl]-6-chloro-1,3-dihydro-2H-indol-2-one] the “Solubility of ziprasidone, Sample Conc., 20 min” value (pH 7.4) was 0.01 µg/mL, the “Solubility of ziprasidone, Sample Conc., 6 hours” value (pH 7.4, time point 6 hours) was 0.22 µg/mL and the “Solubility of ziprasidone, Sample Conc., 7 days” value (pH 7.4) was 0.01 µg/mL. The solubility at 24 h (phosphate buffered saline, pH 7.4, aqueous buffer, thermodynamic from solid, time point 24 hours, read-out: Solubility of ziprasidone, Sample Conc., 24 hours) was 2 µg/mL (≈ 4.84 µM).
